In patent publication US20240208898A1, “ENAMINE N-OXIDES: SYNTHESIS AND APPLICATION TO HYPOXIA-RESPONSIVE PRODRUGS AND IMAGING AGENTS” (DANA-FARBER CANCER INSTITUTE, INC., priority 2021, published 2024):
Values belong to the molecule of their own block, whether it stands above or below them.

Assays:
[1] = Assay evaluating the importance of enamine N-oxide unsaturation; type: physicochemical; details: reductants B2(OH)4 or Fe^2+, 100 mM HEPES, pH 7.4, HPLC
Description: Enamine N-oxide 6 or alkyl N-oxide S4 (50 μL, 4 mM in water; 200 μM final concentration) were added to a HEPES buffered solution (750 μL, 100 mM HEPES, pH 7.4; 1 mL final volume) in an HPLC vial. N-oxide reduction was initiated by adding a solution of tetrahydroxydiboron (200 μL, 200 nmol, 1 equiv, 1 mM in ethanol) and the resulting solution was incubated at room temperature. After 1 hour, solutions were analyzed by HPLC (C18 column, 4.6×50 mm, 2.4 μm particle size, 1 mL/minute flow rate, eluent: gradient H2O+0.1% TFA (1 minute), gradient 0→100% MeCN/H2O+0.1% TFA (4 minutes), MeCN+0.1% TFA (1 minute)). p-Cresol was quantified by its absorbance at 280 nm.

[2] = Assay evaluating the stability of enamine N-oxides to metal cations; type: physicochemical; details: 200 μM, 2 mM cations, 1 h, room temperature, 100 mM HEPES pH 7.4; Fe^2+ with 10 mM sodium dithionite
Description: Enamine N-oxide 3a (50 μL, 4 mM in water; 200 μM final concentration) was added to a HEPES buffered solution (946 μL, 100 mM HEPES, pH 7.4; 1 mL final volume) in an HPLC vial. A solution of metal cation (4 μL, 500 mM in water, 2 mM final concentration) was then added and the solution was incubated at room temperature. After 1 hour, solutions were analyzed by HPLC (C18 column, 4.6×50 mm, 2.4 μm particle size, 1 mL/minute flow rate, eluent: gradient H2O+0.1% TFA (1 minute), gradient 0→100% MeCN/H2O+0.1% TFA (4 minutes), MeCN+0.1% TFA (1 minute)). p-Cresol was quantified by its absorbance of 280 nm.
The following cations were assayed using this procedure: sodium chloride, potassium chloride, calcium chloride, magnesium chloride, manganese (II) chloride, cobalt (II) sulfate, zinc (II) chloride, nickel (II) acetate, and iron (III) chloride.
For iron (II) sulfate, a solution of iron (II) sulfate (2 μL, 1 M in 1 N HCl; 2 mM final concentration) was added followed by a solution of sodium dithionite (10 μL, 1 M in 1 N NaOH; 10 mM final concentration).

[3] = Degradation studies of isolated enamine N-oxides in solvent at 60° C.; type: physicochemical; details: 6 hours, NMR
Description: Degradation studies were performed using isolated enamine N-oxides (5:5′, 15:1). An LC-MS vial was charged with a 0.1 M solution of enamine N-oxides (23.9 mg, 100 μmol) in the reaction solvent of interest and heated to 60° C. for 6 hours. After heating, the reaction mixture was concentrated under reduced pressure and dissolved in CDCl3. The amounts of enamine N-oxides (5 and 5′) and p-fluorophenol (4) were determined by ^1H and ^19F-NMR integrations using benzotrifluoride as an internal standard. Regioisomer ratios in different solvents were determined by ^1H-NMR integrations of vicinal versus geminal olefinic protons.

[4] = Nucleophilic trapping experiment with benzyl mercaptan; type: physicochemical; details: benzyl mercaptan (10 equiv), room temperature
Description: A round-bottom flask was charged with (E)-N,N-diethyl-4-phenyl-3-(p-tolyloxy)but-1-en-1-amine oxide (S6, 26.0 mg, 79.8 μmol, 1 equiv) and dissolved with chloroform-d (773 μL) at room temperature. Benzylmercaptan (93.7 μL, 798 μmol, 10.0 equiv) was then added via syringe. After 5 minutes, analysis by TLC indicated no reduction by benzylmercaptan. Solid bis(pinacolato)diboron (20.3 mg, 79.8 μmol, 1.00 equiv) was then added in one portion at room temperature. After 15 minutes, the reaction was directly loaded onto a silica gel column. The reaction mixture was purified by flash column chromatography (eluent: 100% chloroform) to provide aldehyde S7 (20.2 mg, 94%) as an off-white solid. ^1H NMR (500 MHz, CDCl3, 25° C.): δ 9.51 (dd, J=2.5, 1.4 Hz, 1H), 7.33-7.18 (m, 8H), 7.14-7.08 (m, 2H), 3.68 (q, J=13.4, 10.4 Hz, 2H), 3.20 (tdd, J=8.1, 6.5, 5.6 Hz, 1H), 2.97 (dd, J=13.7, 6.4 Hz, 1H), 2.78 (dd, J=13.8, 8.2 Hz, 1H), 2.60-2.40 (m, 2H). ^13C NMR (126 MHz, CDCl3, 25° C.): δ 200.7, 138.6, 138.1, 129.6, 129.2, 128.8, 128.7, 127.4, 127.0, 47.8, 42.3, 40.5, 36.1. FTIR (thin film) cm^−1: 3026 (w), 2922 (w), 1722 (s), 1494 (m), 1453 (m), 700 (s). HRMS (ESI) (m/z): calc'd for C17H19OS [M+H]^+: 271.1151, found: 271.1149. TLC (100% chloroform), Rf: 0.45 (UV, KMnO4).

[5] = Thermal decomposition of enamine N-oxide (Cope elimination); type: physicochemical; details: 60° C. in CDCl3 for 1 h
Description: A 1-dram vial was charged with enamine N-oxide S1 (90.0 mg, 179 μmol, 1 equiv) and dissolved in chloroform-d (1.79 mL). The reaction vial was flushed with nitrogen, sealed with a cap and Parafilm, and heated to 60° C. After 1 hour, the oil bath was removed and the reaction was cooled to room temperature. The reaction mixture was purified by flash column chromatography on silica gel (eluent: 5% CMA in chloroform). Fractions containing the desired compound were combined and the solvent was removed under reduced pressure at 0° C. with a rotary evaporator to provide the product S2 (14.9 mg, 34%) as an off-white solid. ^1H NMR (500 MHz, CDCl3, 25° C.): δ 7.94 (d, J=8.3, 1H), 7.86 (d, J=7.3, 1H), 7.79 (d, J=7.9, 1H), 7.55-7.35 (m, 4H), 7.31 (d, J=9.6, 1H), 6.16 (dd, J=36.1, 9.7, 1H), 4.08 (d, J=14.0, 2H), 3.65 (s, 3H). ^13C NMR (126 MHz, CDCl3, 25° C.): δ 165.7 (d, J=277.1), 134.2, 132.0, 130.7 (d, J=3.0), 130.4 (d, J=3.2), 129.1, 128.6, 128.1, 126.8, 126.1, 125.7, 123.6, 100.2 (d, J=8.1), 52.6, 36.5 (d, J=26.2). ^19F NMR (471 MHz, CDCl3, 25° C.): δ −89.5. FTIR (thin film) cm^−1: 2922 (m), 2855 (w), 1662 (m), 1569 (w), 1408 (m), 1140 (s), 779 (s). HRMS (ESI) (m/z): calc'd for C15H15FNO [M+H]^+: 244.1132, found: 244.1129. TLC (5% CMA/chloroform), Rf: 0.30 (UV, KMnO4).
A 1-dram vial was charged with enamine N-oxide S1 (90.0 mg, 179 μmol, 1 equiv) and dissolved in chloroform-d (1.79 mL). […]

human liver microsomes = test: In vitro microsomal reduction assay; type: in vitro ADME; details: hypoxic vs normoxic, 2-nitroaniline released, absorbance at λ=412 nm
Description: All reactions were prepared and carried out in a semi-micro spectrophotometer quartz cell fitted with a septum screw cap (Starna Cells). For anaerobic conditions, all solutions were degassed for 30 minutes by sparging with nitrogen. Cells were maintained under anaerobic conditions using nitrogen lines connected to a nitrogen gas manifold or using a nitrogen-filled balloon. In experiments requiring normoxic conditions, the quartz cells were left open to ambient atmosphere. Unless otherwise stated, reactions were prepared as follows. A solution of human liver microsomes (10 μL, 20 mg/mL in phosphate buffer, pH 7.4, Corning; 200 μg/mL final concentration) followed by a solution of NADPH (16.7 μL, 60 mM in 10 mM NaOH solution; 1 mM final concentration) was added to a phosphate buffered solution ([…], 100 mM phosphate buffer, pH 7.4; 1 mL final volume) at room temperature. After 1 hour, reactions were initiated by the addition of a stock solution of the 2-nitroaniline enamine N-oxide probes 32a-f (50 μL, 4 mM in phosphate buffer, pH 7.4; 200 μM final concentration). […]
Heat-inactivated microsomes were prepared for control experiments by heating a solution of human liver microsomes (20 mg/mL in phosphate buffer, pH 7.4, Corning) to 45° C. for 30 minutes. […]

[6] = Enamine N-oxides with reducing agents; type: physicochemical; details: probe 200 μM
Description: A stock solution of 2-nitroaniline enamine N-oxide probe 32c (50 μL, 4 mM in 100 mM phosphate buffer, pH 7.4; 200 μM final concentration) was added to a phosphate buffered solution (850 μL, 100 mM phosphate, pH 7.4; 1 mL final volume) in a semi-micro quartz cell open to ambient atmosphere. A solution of glutathione (100 μL, 50 mM in phosphate buffer, pH 7.4; 5 mM final concentration) or cysteine (100 μL, 50 mM in phosphate buffer, pH 7.4; 5 mM final concentration) or tetrahydroxydiboron (100 μL, […] in methanol; 200 μM final concentration) were added to the solution. Reactions with glutathione or cysteine were incubated at 37° C. The reaction with tetrahydroxydiboron was carried out at room temperature. Wavelength scans (400-550 nm) were recorded at several time points (0, 1, and 2 hours).

release of p-cresol upon reduction [1]: led to the release of p-cresol
SMILES: CC[N+]([O-])(/C=C/COc1ccc(C)cc1)CC [enamine N-oxide 6]
stability in the presence of different metal cations [2]: Only Fe^2+ was capable of reducing enamine N-oxides

Yield (%) 4 (p-fluorophenol formed) ([3]; CHCl3, 0.1 M): 29% | Yield (%) 5 + 5′ (enamine N-oxide remaining) ([3]; CHCl3, 0.1 M): 45% | Yield (%) 4 (p-fluorophenol formed) ([3]; TFE, 0.1 M): <1% | Yield (%) 5 + 5′ (enamine N-oxide remaining) ([3]; TFE, 0.1 M): 96%
SMILES: CC[N+]([O-])(/C=C/COc1ccc(F)cc1)CC [enamine N-oxide 5, (E)-N,N-diethyl-3-(4-fluorophenoxy)prop-1-en-1-amine oxide]

reduction in the absence of diboron [4]: not reduced in the absence of diboron
SMILES: CC[N+]([O-])(/C=C/C(Cc1ccccc1)Oc1ccc(C)cc1)CC (stereo not shown) [enamine N-oxide S6, (E)-N,N-diethyl-4-phenyl-3-(p-tolyloxy)but-1-en-1-amine oxide]

reactivity toward cysteine ([6]; 5 mM cysteine, phosphate buffer pH 7.4, 37° C., over 2 h): unreactive | reactivity toward glutathione ([6]; 5 mM glutathione (GSH), phosphate buffer pH 7.4, 37° C., over 2 h): unreactive
SMILES: CC[N+]([O-])(/C=C/COC(=O)Nc1ccccc1[N+](=O)[O-])CC [probe 32c, (E)-N,N-diethyl-3-(((2-nitrophenyl)carbamoyl)oxy)prop-1-en-1-amine oxide]
enhancement in the initial rate of reduction under hypoxic conditions (human liver microsomes): 21 fold | time until probe is fully reduced by diboron ([6]; B2(OH)4 1 equiv 200 μM, room temperature): ≤ 10 min

Continued, molecule first:

SMILES: C[N+]([O-])(/C=C/C(F)(F)Cc1cccc2ccccc12)CCCCC(=O)NCc1ccc2ccccc2c1 (stereo not shown) [enamine N-oxide S1, (E)-N-(3,3-difluoro-4-(naphthalen-1-yl)but-1-en-1-yl)-N-methyl-5-((naphthalen-2-ylmethyl)amino)-5-oxopentan-1-amine oxide]
thermal decomposition [5]: two new products were isolated in addition to the starting material

SMILES: CC[N+]([O-])(CC)CCCOc1ccc(C)cc1 [alkyl N-oxide S4, N,N-diethyl-3-(p-tolyloxy)propan-1-amine oxide]
release of p-cresol upon reduction [1]: did not lead to the release of p-cresol
